Converted amounts (≈) assume the structure as drawn. Where two headings read alike, the source gives them in different places.
Experiments:
housefly adults = experiment: Oil spray, Campbel's turn table, lethal concentration (Test Example 2); format: in vivo; details: Musca domestica, 24 h
Protocol: A group of about 100 housefly adults was exposed to descending spray for 10 minutes, thereafter was transferred to an observation cage, was fed, and was allowed to stand at room temperature.
After a day, the dead and alive were counted to calculate the lethal ratio.

[1] = tested on: leafhoppers of resistant and susceptible strains; experiment: Emulsion sprayed on rice seedlings, leafhoppers released (Example XVI); format: in vivo, leafhopper; details: emulsion diluted to 50 times
Protocol: About 20 rice seedlings, cultivated for 20 days after sowing in a flower pot of 8.5 cm in diameter were sprayed with each of the present compounds (31, 32, 35, 39, 40, 42, 45, 48, 55, 59, 60, 63, 131 - 134, 139) in the form of an emulsion which were diluted to 50 times. Each pot was put into the beaker and covered with gauze, into which leafhoppers of resistant and susceptible strains, respectively, were released in each beaker. And the number of knocked down insects after 1 hour and the mortality after 24 hours were counted. As a result, the knock down per centage was more than 50% and the mortality was more than 80% in each case.

[2] = tested on: 3rd or 4th instar larvae of tobacco cut worm; experiment: Diluted emulsion sprayed by settling tower on larvae (Example X); format: in vivo; details: emulsion diluted to 50 times, 1 ml
Protocol: Ten of the 3rd or 4th instar larvae of tobacco cut worm were put into a petri dish of 17 cm in diameter.
One ml of the present compound (4, 11, 28, 92, 94, 95, 109, 111) in form of an emulsion obtained in Example X, which were diluted to 50 times with water, were sprayed by means of a settling tower. The said larvae were removed into another petri dish with the leaves of the chinese cabbage leaves. Observation was made after 48 hrs. As a result, more than 90% of the larvae were dead in each case.

adult planthoppers = experiment: Residual effect on sprayed rice seedlings (Example XV); format: in vivo; details: concentrate diluted to 400 times; observed 24 hours after release
Protocol: About 20 rice seedlings, cultivated for 20 days after sowing in a flower pot of 8.5 cm in diameter, were sprayed with each of the emulsifiable concentrates obtained as in Example X which were diluted to 400 times with water. After air-drying, each pot was covered with a wire cage, into which 20 adult planthoppers were released as time elapsed. And the observation was made after 24 hours.

[3] = Table 3a, oil spray 5 ml, 10 minutes exposure, counted after a day, read-out: LC50

With `C#CC(OC(=O)C1C(C=C(Cl)Cl)C1(C)C)C(C)=CCCC=C` (stereo not shown) [Compound 129, 1-Ethynyl-2-methyl-2,6-heptadien-1-yl 2',2'-dimethyl-3'-(2",2"-dichlorovinyl)-cyclopropane-carboxylate] the LC50 (housefly adults) was 230 µg/mL (≈ 674 µM).
`C#CC(OC(=O)C1C(C)(C)C1(C)C)C(=Cc1ccccc1)C(C)C` (stereo not drawn) [Compound 48, α-Ethynyl-β-isopropylcinnamyl 2,2,3,3-tetramethylcyclopropane-carboxylate] was tested, and the “knock down percentage after 1 hour” value [1] was “more than 50%” and the “mortality after 24 hours” value [1] was “more than 80%”.
In the case of `C#CC(OC(=O)C1C(C=C(Cl)Cl)C1(C)C)C(C)=CC` (stereo not shown) [Compound 130, 1-Ethynyl-2-methyl-2-butenyl 2',2'-dimethyl-3'-2',2"-dichlorovinyl-cyclopropanecarboxylate], the LC50 (housefly adults) is reported as 1500 µg/mL (≈ 4980 µM).
In the case of `C#CC(C#CCC=C)OC(=O)C1C(C=CC=C)C1(C)C` (stereo not shown) [Compound 92, 1-Ethynylhexa-2-yn-5-en-1-yl 2',2'-dimethyl-3'-(1",3"- butadienyl)cyclopropane-carboxylate], the “larvae dead after 48 hrs” value [2] is reported as “more than 90%”.
For `C#CC(C#CCOc1ccccc1)OC(=O)C1C(C=C(Cl)Cl)C1(C)C` (stereo not shown) [Compound 144, 1-Ethynyl-4-phenoxy-2-butyn-1-yl 2',2'-dimethyl-3'-(2",2"-dichlorovinyl)-cyclopropanecarboxylate], the LC50 (housefly adults; [3]) was 290 µg/mL (≈ 769 µM).
`C#CC(OC(=O)C1C(C=C2CCCC2)C1(C)C)C(C)=CCC1=CCCC1` (stereo not shown) [Compound 111, 1-Ethynyl-2-methyl-4-(1'-cyclopentenyl)-2-butenyl 2",2"- dimethyl-3"-cyclopentylidene-methylcyclopropanecarboxylate] was tested, and the LC50 (housefly adults; [3]) was 410 µg/mL (≈ 1160 µM) and the “larvae dead after 48 hrs” value [2] was “more than 90%”.
`C#CC(C=Cc1ccco1)OC(=O)C1C(C=C(C)C)C1(C)C` (stereo not drawn) [Compound 60, α-Ethynyl-γ-(2-furyl)-allyl chrysanthemate] was tested, and the “knock down percentage after 1 hour” value [1] was “more than 50%” and the “mortality after 24 hours” value [1] was “more than 80%”.
For `C#CC(OC(=O)C1C(C=C(Cl)Cl)C1(C)C)/C(C)=C/CC` (stereo not shown) [Compound 126, 1-Ethynyl-2-methyl-2-pentenyl 2',2'-dimethyl-3'-(2",2"-dichlorovinyl)-yclopropanecarboxylate], the LC50 (housefly adults) was 300 µg/mL (≈ 952 µM).
`C#CC(OC(=O)C1C(C)(C)C1(C)C)C(C)=Cc1ccccc1` (stereo not drawn) [Compound 39, α-Ethynyl-β-methylcinnamyl 2,2,3,3-tetramethyl-cyclopropanecarboxylate] was tested, and the “Mortality (%) After 1 day” value (adult planthoppers) was 100%, the “Mortality (%) After 6 days” value (adult planthoppers) was 85.0% and the “knock down percentage after 1 hour” value [1] was “more than 50%”. The “mortality after 24 hours” value [1] was “more than 80%”.
In the case of `C#CC(OC(=O)C1C(C=C2CCCC2)C1(C)C)C(C)=CCC` (stereo not shown) [Compound 28, 1-Ethynyl-2-methyl-2-pentenyl 2',2'-dimethyl-3'-cyclopentylidene-methylcyclopropanecarboxylate], the “larvae dead after 48 hrs” value [2] is reported as “more than 90%”.
In the case of `C#CC(C#CCC=C)OC(=O)C1C(C=C(Cl)Cl)C1(C)C` (stereo not shown) [Compound 143, 1-Ethynyl-4-vinyl-2-butyn-1-yl 2',2'-dimethyl-340-(2",2"-dichloro-vinyl)-cyclopropanecarboxylate], the LC50 (housefly adults; [3]) is reported as 820 µg/mL (≈ 2630 µM).
For `C#CC(OC(=O)C1C(C=C2CCCC2)C1(C)C)C(C)=Cc1ccccc1` (stereo not shown) [Compound 40], the “Mortality (%) After 1 day” value (adult planthoppers) was 100%, the “Mortality (%) After 6 days” value (adult planthoppers) was 66.7% and the “knock down percentage after 1 hour” value [1] was “more than 50%”. The “mortality after 24 hours” value [1] was “more than 80%”.
In the case of `C#CC(OC(=O)C1C(C=C(C)C)C1(C)C)C(C)=CCC=C` (stereo not shown) [Compound 29, 1-Ethynyl-2-methyl-2,5-hexadienyl chrysanthemate], the LC50 (housefly adults) is reported as 900 µg/mL (≈ 3140 µM).
For `C#CC(OC(=O)C1C(C=C(Cl)Cl)C1(C)C)C(C)=Cc1ccccc1` (stereo not drawn) [Compound 59, α-Ethynyl-β-methylcinnamyl 2,2-dimethyl-3-(2',2'-dichloro-vinyl)cyclopropanecarboxylate], the “knock down percentage after 1 hour” value [1] was “more than 50%” and the “mortality after 24 hours” value [1] was “more than 80%”.
With `C#CC(C#CCOc1ccccc1)OC(=O)C1C(C=C(C)C)C1(C)C` (stereo not shown) [Compound 79, 1-Ethynyl-4-phenoxy-2-butyn-1-yl chrysanthemate] the LC50 (housefly adults; [3]) was 830 µg/mL (≈ 2470 µM).
`CNC(=O)Oc1ccc(C)c(C)c1` [Meobal, 3,4-Dimethylphenyl-N-methylcarbamate, reference compound] was tested, and the “Mortality (%) After 1 day” value (adult planthoppers) was 100% and the “Mortality (%) After 6 days” value (adult planthoppers) was 40.0%.
For `C#CC(OC(=O)C1C(C=C(Cl)Cl)C1(C)C)C(C)=CCC=C` (stereo not shown) [Compound 127, 1-Ethynyl-2-methyl-2,5-hexadien-1-yl 2',2'-dimethyl-3'-(2",2"-di-chlorovinyl)-cyclopropane-carboxylate], the LC50 (housefly adults) was 250 µg/mL (≈ 764 µM).
Work on `C#CC(OC(=O)C1C(C=C(C)C)C1(C)C)C(=CCCC)CC` (stereo not shown) [Compound 5, 1-Ethynyl-2-ethyl-2-hexenyl chrysanthemate] yielded an LC50 (housefly adults) of 2400 µg/mL (≈ 7930 µM).
`C#CC(C#CCOC)OC(=O)C1C(C=C(C)C)C1(C)C` (stereo not shown) [Compound 68, 1-Ethynyl-4-methoxy-2-butyn-1-yl chrysanthemate] was tested, and the LC50 (housefly adults; [3]) was 4000 µg/mL (≈ 14600 µM).
`C#CC(C#CCOC)OC(=O)C1C(C=C(Cl)Cl)C1(C)C` (stereo not shown) [Compound 142, 1-Ethynyl-4-methoxy-2-butyn-1-yl 2',2'-dimethyl-3'-(2",2"- dichlorovinyl)-cyclopropane-carboxylate] was tested, and the LC50 (housefly adults; [3]) was 1200 µg/mL (≈ 3810 µM).
For `C#CC(OC(=O)C1C(C)C1(C)C)C(=Cc1ccc(OCC)cc1)CC` (stereo not drawn) [Compound 42, α-Ethynyl-β-ethyl-4-ethoxy-cinnamyl 2',2',3'-trimethyl-cyclopropanecarboxylate], the “knock down percentage after 1 hour” value [1] was “more than 50%” and the “mortality after 24 hours” value [1] was “more than 80%”.
With `C#CC(C#CCC=C)OC(=O)C1C(C=C2CCCC2)C1(C)C` (stereo not shown) [Compound 94, 1-Ethynylhexa-2-yn-5-en-1-yl 2',2'-dimethyl-3-'-cyclopentylidene-methylcyclopropanecarboxylate] the “larvae dead after 48 hrs” value [2] was “more than 90%”.
With `C#CC(OC(=O)C1C(C)(C)C1(C)C)C(C)=CC` (stereo not shown) [Compound 11, 1-Ethynyl-2-methyl-2-butenyl 2',2',3',3'-tetramethylcyclo-propanecarboxylate] the “larvae dead after 48 hrs” value [2] was “more than 90%”.
With `C#CC(C#CCC=C)OC(=O)C1C(C=C(Cl)Cl)C1(C)C` (stereo not shown) [Compound 95, 1-Ethynylhexa-2-yn-5-en-1-yl 2',2'-dimethyl-3'-(2",2"- dichlorovinyl)cyclopropane-carboxylate] the “larvae dead after 48 hrs” value [2] was “more than 90%”.
Work on `C#CC(C=CC1C=CCC1)OC(=O)C1C(C=C(C)C)C1(C)C` (stereo not shown) [Compound 102, 1-Ethynyl-3-(2'-cyclopentenyl)-allyl chrysanthemate] yielded an LC50 (housefly adults; [3]) of 600 µg/mL (≈ 2010 µM).
`C#CC(OC(=O)C1C(C=C(C)C)C1(C)C)C(C)=CCCC=C` (stereo not shown) [Compound 128, 1-Ethynyl-2-methyl-2,6-heptadien-1-yl-chrysanthemate] showed an LC50 (housefly adults) of 900 µg/mL (≈ 3000 µM).
In the case of `C#CC(OC(=O)C1(C)C(C=C2CCCC2)C1(C)C)C(C)=Cc1ccccc1C` (stereo not drawn) [Compound 55, α-Ethynyl-β-methyl-2-methyl-cinnamyl 1',2',2'-trimethyl-3'-cyclopentylidenemethyl-cyclopropanecarboxylate], the “knock down percentage after 1 hour” value [1] is reported as “more than 50%” and the “mortality after 24 hours” value [1] is reported as “more than 80%”.
For `C#CC(C#CCC=C)OC(=O)C1C(C=C(C)C)C1(C)C` (stereo not shown) [Compound 71, 1-Ethynylhexa-2-yn-5-en-1-yl chrysanthemate], the LC50 (housefly adults; [3]) was 2900 µg/mL (≈ 10700 µM).
With `C#CC(OC(=O)C1C(C=C(C)C)C1(C)C)C(=CC1=CCCC1)CC` (stereo not shown) [Compound 109, 1-Ethynyl-2-ethyl-3-(1'-cyclopentenyl)allyl chrysanthemate] the LC50 (housefly adults; [3]) was 340 µg/mL (≈ 1040 µM) and the “larvae dead after 48 hrs” value [2] was “more than 90%”.
`C=CCC1=C(C)C(OC(=O)C2C(C=C(C)C)C2(C)C)CC1=O` (stereo not shown) [Allethrin, reference compound] was tested, and the LC50 (housefly adults) was 3500 µg/mL (≈ 11600 µM).
With `C#CC(OC(=O)C1C(C=C(C)C=C)C1(C)C)C(C)=Cc1ccc(C#N)cc1` (stereo not drawn) [Compound 45, α-Ethynyl-β-methyl-4-cyano-cinnamyl 2',2'-dimethyl-3'-(2"-methyl-1",3"-butadienyl)-cyclopropanecarboxylate] the “knock down percentage after 1 hour” value [1] was “more than 50%” and the “mortality after 24 hours” value [1] was “more than 80%”.

— patent US4003945A, “Novel cyclopropanecarboxylates” (Sumitomo Chemical Company, Limited, priority 1973, dated 1977)
